Results reported in the NIST ThermoML archive (doi:10.1021/je400535t).
Where “and” joins values, the source holds several entries; their conditions need not be identical. Equal entries are not always repeated.

Assay: molar heat capacity at constant pressure
Conditions: 101.33 kPa, Crystal, Small (less than 1 g) adiabatic calorimetry

O=C([O][Sb]([O]C(=O)C12CC3CC(CC(C3)C1)C2)([c]1ccccc1)([c]1ccccc1)[c]1ccccc1)C12CC3CC(CC(C3)C1)C2
Conditions	molar heat capacity at constant pressure
139.88 K	353.9 J/K/mol
140 K	356 J/K/mol
141.88 K	360.2 J/K/mol
143.86 K	365 J/K/mol
145.81 K	369.5 J/K/mol
147.78 K	373.9 J/K/mol
149.76 K	378.3 J/K/mol
150 K	378.8 J/K/mol
152.23 K	383.7 J/K/mol
155.2 K	391.3 J/K/mol
158.16 K	397.8 J/K/mol
160 K	401.7 J/K/mol
161.11 K	404.3 J/K/mol
164.04 K	411.2 J/K/mol
166.97 K	417.6 J/K/mol
169.88 K	424.5 J/K/mol
170 K	424.6 J/K/mol
172.78 K	430.6 J/K/mol
175.68 K	437 J/K/mol
178.57 K	443.5 J/K/mol
180 K	447.4 J/K/mol
181.43 K	450.4 J/K/mol
184.29 K	457.3 J/K/mol
187.14 K	463.9 J/K/mol
189.9 K	470 J/K/mol
190 K	470.3 J/K/mol
192.72 K	477.1 J/K/mol
195.53 K	483.7 J/K/mol
198.33 K	489.7 J/K/mol
200 K	493.6 J/K/mol
201.12 K	496.2 J/K/mol
203.89 K	503 J/K/mol
209.43 K	515.8 J/K/mol
210 K	517.7 J/K/mol
212.2 K	523 J/K/mol
214.96 K	529.5 J/K/mol
217.72 K	536.6 J/K/mol
220 K	542.3 J/K/mol
220.47 K	543.8 J/K/mol
223.23 K	550 J/K/mol
225.98 K	556.9 J/K/mol
228.73 K	564.4 J/K/mol
230 K	567.3 J/K/mol
231.48 K	571.2 J/K/mol
234.15 K	576.4 J/K/mol
236.89 K	583.6 J/K/mol
239.63 K	590.6 J/K/mol
240 K	591.6 J/K/mol
242.35 K	597.2 J/K/mol
245.08 K	603.8 J/K/mol
247.81 K	610.3 J/K/mol
250 K	615.4 J/K/mol
250.54 K	617 J/K/mol
253.26 K	623.5 J/K/mol
255.99 K	630.5 J/K/mol
258.71 K	636.5 J/K/mol
260 K	639.5 J/K/mol
261.43 K	643.1 J/K/mol
264.15 K	650.3 J/K/mol
266.87 K	656.1 J/K/mol
269.6 K	662.2 J/K/mol
270 K	664 J/K/mol
272.32 K	669 J/K/mol
275.04 K	675.8 J/K/mol
277.75 K	683.5 J/K/mol
280 K	689.1 J/K/mol
280.46 K	690.8 J/K/mol
283.18 K	697.8 J/K/mol
285.9 K	703.7 J/K/mol
288.62 K	711.2 J/K/mol
290 K	714.3 J/K/mol
291.34 K	717.9 J/K/mol
294.06 K	724.7 J/K/mol
296.83 K	732.2 J/K/mol
298.15 K	734.7 J/K/mol
299.59 K	739 J/K/mol
300 K	739.3 J/K/mol
302.36 K	745.1 J/K/mol
305.06 K	750.5 J/K/mol
307.66 K	756.7 J/K/mol
310 K	763.8 J/K/mol
310.21 K	763.5 J/K/mol
312.71 K	769.8 J/K/mol
315.15 K	776 J/K/mol
317.53 K	781.5 J/K/mol
319.66 K	787.9 J/K/mol
320 K	787.8 J/K/mol
321.94 K	792.5 J/K/mol
324.16 K	798.1 J/K/mol
326.33 K	802.6 J/K/mol
328.44 K	808.3 J/K/mol
330 K	811.6 J/K/mol
330.51 K	813 J/K/mol
332.48 K	818.5 J/K/mol
334.44 K	823.2 J/K/mol
336.34 K	827.3 J/K/mol
338.2 K	831.4 J/K/mol
340 K	835.5 J/K/mol and 835.4 J/K/mol
341.76 K	839.5 J/K/mol
343.47 K	842.9 J/K/mol
345 K	846.6 J/K/mol
346.75 K	850.4 J/K/mol
348.1 K	853.8 J/K/mol
349.45 K	857 J/K/mol
350 K	859 J/K/mol
350.59 K	860.6 J/K/mol
352.03 K	864 J/K/mol
353.43 K	868 J/K/mol
360 K	882 J/K/mol
370 K	904 J/K/mol
380 K	926 J/K/mol
390 K	949 J/K/mol
400 K	972 J/K/mol
410 K	996 J/K/mol
420 K	1020 J/K/mol
430 K	1044 J/K/mol
440 K	1067 J/K/mol
450 K	1091 J/K/mol
460 K	1118 J/K/mol
470 K	1152 J/K/mol
480 K	1201 J/K/mol
490 K	1251 J/K/mol
498 K	1289 J/K/mol
